Series [1] is described as follows: Vapor pressure by thermogravimetry. The settings on record: at 20° C.; Mettler Toledo STAR thermogravimeter. Type of series: physicochemical. As to the method:
The vapor pressure can be determined by thermogravimetry by methods known in the art. In the context of the present invention, a Mettler Toledo STAR thermogravimeter with 5 mg sample on a glass plate may be used. As a reference compound, 3,4-dimethyl pyrazole (DMP) was inter alia measured and a vapor pressure of 3.7 Pa at 20° C. was determined.

The next series has as its system N2O emissions. Kind of series: N2O emissions from potted lettuce in greenhouse soil, gas chamber sampling, GC-ECD. The settings on record: total cumulated N2O emissions, % inhibition compared to control; greenhouse 20° C., 60% humidity. In kind it is in vivo, Green head lettuce. As to the method: Green head lettuce was seeded in seedling boxes. Once the 4 leaf stage was reached one plant was potted into a 8 cm pot in standard greenhouse soil (mixture of peat, loam and sand) and grown in the greenhouse at 20° C. and 60% humidity. One week after planting the plants, the pots were separated out and each pot set onto a plant saucer designed with an inner compartment for the pot and an outer ring that is filled with water. At time 0, water with or without various concentrations of fertilizer and with either empty formulation or formulated capsule suspensions was applied to the plant such that the water holding capacity of the soil was around 50%. Then a gas sampling chamber was placed over the plant saucer such that the rim fit into the ring filled with water to create a gas-tight chamber and 20 cc air from the chamber were drawn into a syringe and immediately emptied in to a Vacutainer (Labco, 12 ml volume). This equals the Time Zero measurement for each pot. The same procedure was performed with all pots in the experiment. After incubation time of 1 h, again 20 cc air samples were taken from the gas chambers and emptied into Vacutainers as described above. […]
Samples were analyzed in a Shimadzu 2014 GC equipped with an ECD system. Total cumulated N2O emissions were calculated and related by calculating the % inhibition compared to control.

Molecule `Cc1cn[nH]c1C` [3,4-dimethyl pyrazole (DMP), 3,4-dimethyl pyrazole] had a vapor pressure in series [1] of 3.7 Pa.

As to `C#CCOCc1ccc(Cl)cc1` [Example A-10], in the series on N2O emissions, the “Inhibition (%) N2O emissions” value was 25%.

Usually vapor pressure stands for the equilibrium pressure above the liquid or solid.

The record behind these values is patent publication US20190276376A1, “CAPSULES COMPRISING BENZYLPROPARGYLETHERS FOR USE AS NITRIFICATION INHIBITORS” (BASF SE, priority 2016, published 2019).
